The NIST ThermoML archive (doi:10.1016/j.jct.2006.05.008)

Experiment: molar heat capacity at constant pressure
Details: 101.33 kPa, Small (less than 1 g) adiabatic calorimetry

CCCCn1cc[n+](C)c1.[Br-] [1-butyl-3-methylimidazolium bromide]
Details | molar heat capacity at constant pressure [J/K/mol]
5 K, Crystal | 0.594
5.112 K, Crystal | 0.6398
5.416 K, Glass | 1.391
5.455 K, Crystal | 0.7976
5.698 K, Glass | 1.608
5.764 K, Crystal | 0.9598
6.014 K, Glass | 1.871
6.078 K, Crystal | 1.144
6.368 K, Glass | 2.187
6.428 K, Crystal | 1.37
6.758 K, Glass | 2.559
6.809 K, Crystal | 1.648
7.151 K, Glass | 2.969
7.192 K, Crystal | 1.957
7.546 K, Glass | 3.418
7.578 K, Crystal | 2.288
7.943 K, Glass | 3.889
7.966 K, Crystal | 2.656
8.343 K, Glass | 4.396
8.356 K, Crystal | 3.052
8.743 K, Glass | 4.921
8.747 K, Crystal | 3.473
9.141 K, Crystal | 3.927
9.142 K, Glass | 5.507
9.535 K, Crystal | 4.4
9.542 K, Glass | 6.116
9.931 K, Crystal | 4.904
9.941 K, Glass | 6.777
10 K, Crystal | 5
10.43 K, Crystal | 5.581
10.45 K, Glass | 7.669
11.04 K, Crystal | 6.447
11.06 K, Glass | 8.866
11.65 K, Crystal | 7.367
11.68 K, Glass | 9.609
12.26 K, Crystal | 8.338
12.33 K, Glass | 10.33
12.88 K, Crystal | 9.361
12.97 K, Glass | 11.38
13.49 K, Crystal | 10.43
13.59 K, Glass | 12.45
14.11 K, Crystal | 11.52
14.22 K, Glass | 13.57
14.73 K, Crystal | 12.65
14.85 K, Glass | 14.68
15 K, Crystal | 13.15
15.46 K, Crystal | 14.04
15.59 K, Glass | 16.03
16.3 K, Crystal | 15.65
16.44 K, Glass | 17.61
17.14 K, Crystal | 17.33
17.29 K, Glass | 19.2
17.98 K, Crystal | 19.01
18.14 K, Glass | 20.83
18.82 K, Crystal | 20.74
18.99 K, Glass | 22.44
19.66 K, Crystal | 22.48
19.84 K, Glass | 24.05
20 K, Crystal | 23.22
20.8 K, Crystal | 24.92
20.98 K, Glass | 26.32
22.23 K, Crystal | 27.96
22.44 K, Glass | 29.08
23.67 K, Crystal | 30.95
23.89 K, Glass | 31.88
25 K, Crystal | 33.71
25.11 K, Crystal | 33.93
25.34 K, Glass | 34.61
26.55 K, Crystal | 36.89
26.79 K, Glass | 37.3
28 K, Crystal | 39.85
28.25 K, Glass | 39.98
29.46 K, Crystal | 42.71
29.71 K, Glass | 42.64
30 K, Crystal | 43.79
30.91 K, Crystal | 45.58
31.17 K, Glass | 45.28
32.37 K, Crystal | 48.31
32.64 K, Glass | 47.85
33.83 K, Crystal | 50.92
34.1 K, Glass | 50.34
35 K, Crystal | 52.97
35.29 K, Crystal | 53.48
35.56 K, Glass | 52.74
36.75 K, Crystal | 55.93
37.02 K, Glass | 55.06
38.21 K, Crystal | 58.33
38.48 K, Glass | 57.36
39.67 K, Crystal | 60.64
39.95 K, Glass | 59.57
40 K, Crystal | 61.09
41.38 K, Crystal | 63.18
